From patent publication US20050054559A1, “Compounds for sustained release of orally delivered drugs” (priority 2000, published 2005)
Read-outs that look alike come from different tables or passages of the source. Square brackets hold non-standard residues; d marks the D form. Peptide text beside a SMILES is read from it. * marks the point of attachment. Bn = c1ccc(C*)cc1

Key:
IBAT [1] = molecular target: T1, IBAT (Homo sapiens, UniProt Q12908); experiment: Electrogenic transport in Xenopus oocytes expressing IBAT; type: cell-based; details: for % Max. (GDC): relative to glycodeoxycholate
T1 sequence (Q12908 whole entry): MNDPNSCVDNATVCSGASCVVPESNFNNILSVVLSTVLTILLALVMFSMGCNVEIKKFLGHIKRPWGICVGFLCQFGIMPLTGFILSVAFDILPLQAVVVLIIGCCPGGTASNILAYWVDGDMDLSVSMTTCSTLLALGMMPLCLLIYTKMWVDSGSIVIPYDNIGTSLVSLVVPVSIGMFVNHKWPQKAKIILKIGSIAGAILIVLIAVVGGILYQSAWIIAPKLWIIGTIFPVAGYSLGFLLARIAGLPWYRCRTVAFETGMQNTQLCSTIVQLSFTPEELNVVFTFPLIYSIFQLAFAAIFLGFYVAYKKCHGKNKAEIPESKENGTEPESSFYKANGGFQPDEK
Description: (§1) RNA preparation: Human IBAT and LBAT Transporter cDNAs were subcloned into a modified pGEM plasmid that contains 5′ and 3′ untranslated sequences from the Xenopus β-actin gene. These sequences increase RNA stability and protein expression. Plasmid cDNA was linearized and used as template for in vitro transcription (Epicentre Technologies transcription kit, 4:1 methylated:non-methylated GTP).
(§2) Xenopus oocyte isolation. Xenopus laevis frogs were anesthetized by immersion in Tricaine ([…] in deionized water) for 15 min. Oocytes were removed and digested in frog ringer solution (90 mM NaCl, 2 mM KCl, 1 mM MgCl2, 10 mM NaHEPES, pH 7.45, no CaCl2) with 1 mg/mL collagenase (Worthington Type 3) for 80-100 min with shaking. The oocytes were washed 6 times, and the buffer changed to frog ringer solution containing CaCl2 (1.8 mM). Remaining follicle cells were removed if necessary. Cells were incubated at 16° C., and each oocyte injected with […] RNA in […] solution.
(§3) Electrophysiology measurements. Transport currents were measured 2-14 days after injection, using a standard two-electrode electrophysiology set-up (Geneclamp 500 amplifier, Digidata 1320/PCLAMP software and ADInstruments hardware and software were used for signal acquisition). Electrodes ([…]) were microfabricated using a Sutter Instrument puller and filled with 3M KCl. The bath was directly grounded (transporter currents were less than 0.3 μA). Bath flow was controlled by an automated perfusion system (ALA Scientific Instruments, solenoid valves).
For transporter pharmacology, oocytes were clamped at −60 to −90 mV, and continuous current measurements acquired using PowerLab Software and an ADInstruments digitizer. Current signals were lowpass filtered at 20 Hz and acquired at 4-8 Hz. All bath and drug-containing solutions were frog ringers solution containing CaCl2. Drugs were applied for 10-30 seconds until the induced current reached a new steady-state level, followed by a control solution until baseline currents returned to levels that preceded drug application. The difference current (baseline subtracted from peak current during drug application) reflected the net movement of charge resulting from electrogenic transport and was directly proportional to tranport rate. Recordings were made from a single oocyte for up to 60 min, enabling 30-40 separate compounds to be tested per oocyte. […]. Using this normalization procedure Vmax (i.e. maximal induced current) for different compounds tested on different oocytes could be compared.

LBAT = molecular target: T2, LBAT (Homo sapiens, UniProt Q14973); experiment: Inhibition of radiolabeled taurocholate uptake in LBAT-transfected CHO cells; type: cell-based; details: radiolabeled competition assay in transporter-expressing CHO cells
T2 construct: expressed in transfected cells; host or cells: CHO cells
T2 sequence (Q14973 whole entry): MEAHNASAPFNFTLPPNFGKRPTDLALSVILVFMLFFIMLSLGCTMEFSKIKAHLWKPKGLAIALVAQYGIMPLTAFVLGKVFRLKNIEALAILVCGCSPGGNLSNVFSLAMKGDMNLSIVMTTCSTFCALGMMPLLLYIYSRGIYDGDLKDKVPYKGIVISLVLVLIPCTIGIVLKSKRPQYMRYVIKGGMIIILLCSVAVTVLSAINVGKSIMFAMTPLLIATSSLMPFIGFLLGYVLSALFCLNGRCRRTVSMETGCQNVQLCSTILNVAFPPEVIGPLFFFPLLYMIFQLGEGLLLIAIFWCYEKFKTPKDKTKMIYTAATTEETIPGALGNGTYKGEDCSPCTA
Procedure: (§4) CHO cells transfected with either the IBAT or LBAT transporter were seeded into 96-well microtiter plates at 100,000 cells/well in 100 μL DMEM containing 10% serum, glutamine and Penstrep. After overnight incubation the media was removed and test compound (25 μL) added at 2× the final desired concentration. Tritiated taurocholate (50,000 CPM/well) was diluted with cold substrate to a final concentration of 5 μM and 25 μL/well of this mixture was added to the plate. After incubating for 1 h at room temperature the solution was removed and the plate washed 4× with PBS at 4° C. 200 μL/well of scintillant is added and the plate then read in a Wallac microbeta counter. The inhibition data is processed by standard methods to calculate an inhibition constant Ki for the test compound.

IBAT [2] = molecular target: T1, IBAT; experiment: Inhibition of radiolabeled taurocholate uptake in IBAT-transfected CHO cells; type: cell-based; set-up: expressed in transfected cells; host or cells: CHO cells; details: radiolabeled competition assay in transporter-expressing CHO cells
Procedure: as §4

hPEPT2 = molecular target: T3, hPEPT2 (Homo sapiens, UniProt Q16348); experiment: Electrogenic transport in Xenopus oocytes expressing hPEPT2; type: cell-based; details: test compound 1 mM, relative to Gly-Sar
T3 sequence (Q16348 1-729): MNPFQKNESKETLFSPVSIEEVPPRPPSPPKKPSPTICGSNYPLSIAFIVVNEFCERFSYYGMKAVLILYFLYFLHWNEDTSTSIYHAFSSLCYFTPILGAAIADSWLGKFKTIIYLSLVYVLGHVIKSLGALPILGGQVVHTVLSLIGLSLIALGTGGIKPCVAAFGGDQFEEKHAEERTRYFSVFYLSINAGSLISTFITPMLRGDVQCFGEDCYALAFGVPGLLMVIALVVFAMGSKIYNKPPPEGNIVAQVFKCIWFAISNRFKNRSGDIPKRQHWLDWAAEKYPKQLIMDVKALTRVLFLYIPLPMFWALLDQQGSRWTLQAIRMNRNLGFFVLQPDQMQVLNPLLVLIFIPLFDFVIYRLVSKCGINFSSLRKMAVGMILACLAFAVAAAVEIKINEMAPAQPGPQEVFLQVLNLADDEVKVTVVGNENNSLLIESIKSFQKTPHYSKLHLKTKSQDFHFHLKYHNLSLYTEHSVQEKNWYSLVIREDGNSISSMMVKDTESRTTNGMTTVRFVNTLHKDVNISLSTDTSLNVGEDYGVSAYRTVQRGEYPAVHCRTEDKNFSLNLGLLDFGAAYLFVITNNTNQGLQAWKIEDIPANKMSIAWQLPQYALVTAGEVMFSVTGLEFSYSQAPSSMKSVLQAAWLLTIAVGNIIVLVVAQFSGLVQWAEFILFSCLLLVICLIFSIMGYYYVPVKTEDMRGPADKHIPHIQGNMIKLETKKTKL
Description: as §1, with “Rat” for “Human IBAT”, “human PEPT1 and PEPT2 transporter” for “LBAT Transporter”
as §2, §3
(§5) For transporter pharmacology, oocytes were clamped at −60 to −90 mV, and continuous current measurements acquired using PowerLab Software and an ADInstruments digitizer. Current signals were lowpass filtered at 20 Hz and acquired at 4-8 Hz. All bath and drug-containing solutions were frog ringers solution containing CaCl2. Drugs were applied for 10-30 seconds until the induced current reached a new steady-state level, followed by a control solution until baseline currents returned to levels that preceded drug application. The difference current (baseline subtracted from peak current during drug application) reflected the net movement of charge resulting from electrogenic transport and was directly proportional to tranport rate. Recordings were made from a single oocyte for up to 60 min, enabling 30-40 separate compounds to be tested per oocyte. […] To compare results between oocytes expressing different levels of transport activity, a saturating concentration of glycyl-sarcosine (1 mM) was used as a common reference to normalize results from test compounds. Using this normalization procedure Vmax (i.e. maximal induced current) for different compounds tested on different oocytes could be compared.

hPEPT1 = molecular target: T4, hPEPT1 (Homo sapiens, UniProt P46059); experiment: Electrogenic transport in Xenopus oocytes expressing hPEPT1; type: cell-based; details: for % Max. (Gly-Sar): hPEPT1-expressing oocytes, test compound 1 mM, relative to Gly-Sar; for transport by hPEPT1 (in words): summary of Example 34
T4 sequence (P46059 1-708): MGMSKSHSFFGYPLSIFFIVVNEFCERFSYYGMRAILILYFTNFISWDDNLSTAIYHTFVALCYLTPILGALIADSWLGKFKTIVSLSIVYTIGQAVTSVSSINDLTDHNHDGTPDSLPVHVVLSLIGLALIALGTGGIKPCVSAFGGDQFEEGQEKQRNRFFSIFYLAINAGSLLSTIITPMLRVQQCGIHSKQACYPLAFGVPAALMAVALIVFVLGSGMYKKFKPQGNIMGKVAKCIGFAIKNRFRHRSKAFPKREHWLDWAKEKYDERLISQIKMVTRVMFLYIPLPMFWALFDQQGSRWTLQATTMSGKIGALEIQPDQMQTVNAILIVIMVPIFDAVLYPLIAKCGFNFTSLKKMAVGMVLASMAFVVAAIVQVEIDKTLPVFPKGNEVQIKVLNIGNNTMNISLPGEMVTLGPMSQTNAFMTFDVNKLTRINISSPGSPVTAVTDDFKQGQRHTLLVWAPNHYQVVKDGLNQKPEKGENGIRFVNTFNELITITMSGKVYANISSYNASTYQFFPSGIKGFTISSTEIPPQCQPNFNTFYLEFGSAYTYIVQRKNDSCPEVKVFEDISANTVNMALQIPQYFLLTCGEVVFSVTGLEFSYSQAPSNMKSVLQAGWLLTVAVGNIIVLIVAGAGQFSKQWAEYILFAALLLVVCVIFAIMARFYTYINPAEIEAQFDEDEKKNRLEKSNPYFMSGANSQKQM
Description: as §1, with “Rat” for “Human IBAT”, “human PEPT1 and PEPT2 transporter” for “LBAT Transporter”
as §2, §3, §5

[3] = Pharmacokinetics in rats following oral administration (Examples 38 and 40); details: male, Sprague-Dawley, rat, in vivo, 25 mg/kg
Procedure: (§6) The pharmacokinetics of the prodrug (4) were examined in rats. Three groups of four male Sprague-Dawley rats (approx 200 g) with jugular cannulae each received one of the following treatments: A) a single bolus intravenous injection of gabapentin (25 mg/kg, as a solution in water); B) a single oral dose of gabapentin (25 mg/kg, as a solution in water) administered by oral gavage; C) a single oral dose of (4) (85.25 mg/kg, as a solution in water) administered by oral gavage. Animals were fasted overnight prior to dosing and until 4 hours post-dosing. Serial blood samples were obtained over 24 hours following dosing and blood was processed for plasma by centrifugation. Plasma samples were stored at −80° C. until analyzed. Concentrations of (4) or gabapentin in plasma samples were determined by LC/MS/MS as described in Example 35. Plasma (50 μL) was precipitated by addition of […] of methanol and supernatent was injected directly onto the LC/MS/MS system. The method was linear for gabapentin over the concentration range 0.001 to 20 ng/mL and for (4) over the concentration range 0.01 to 10 ng/mL.
as §6, with “prodrug Cholyl-Phe-Gabapentin (7g)” for “prodrug (4)”, “of (7g) (103.5” for “of (4) (85.25”, “of (7g)” for “of (4)”, “or (2)” for “or gabapentin”, “described above.” for “described in Example 35.”, “system.” for “system. The method was linear for gabapentin over the concentration range 0.001 to 20 ng/mL and for (4) over the concentration range 0.01 to 10 ng/mL.”

[4] = in rats; Salach et al, Pharm. Res. 1994; cited from earlier work

Compound | % Max. (GDC) (IBAT [1]) | % Max. (Gly-Sar) (hPEPT2) | % Max. (Gly-Sar) (hPEPT1) | further results
CC(CCC(=O)NCC(=O)NCC1(CC(=O)O)CCCCC1)C1CCC2C3C(O)CC4CC(O)CCC4(C)C3CC(O)C12C (centres unmarked) [(7a), Cholyl-Gly-Gabapentin] | 67% |  |  | 
CC(CCC(=O)NC(Cc1ccccc1)C(=O)NCC1(CC(=O)O)CCCCC1)C1CCC2C3C(O)CC4CC(O)CCC4(C)C3CC(O)C12C (centres unmarked) [(7g), Cholyl-Phe-Gabapentin] | 28% |  |  | IC50 (LBAT): 0.5 µM; IC50 (IBAT [2]): 92 µM; EC50 (IBAT [1]): 140 µM
CC(CCC(=O)NC(Cc1ccc(O)c(O)c1)C(=O)O)C1CCC2C3C(O)CC4CC(O)CCC4(C)C3CC(O)C12C (centres unmarked) [(20), Cholyl-Dopa] | 0% |  |  | IC50 (LBAT): 5 µM; IC50 (IBAT [2]): 83 µM
C[C@H](CCC(=O)N[C@@H](Cc1ccc2oc(=O)oc2c1)C(=O)O)[C@H]1CC[C@H]2[C@@H]3[C@H](O)C[C@@H]4C[C@H](O)CC[C@]4(C)[C@H]3C[C@H](O)[C@]12C [(23), Cholyl-Dopa-(3,4-carbonate)] | 25% |  |  | IC50 (LBAT): 1.8 µM; IC50 (IBAT [2]): 74 µM
N[C@@H](CCC(=O)O)C(=O)N[C@@H](CSCc1ccccc1)C(=O)O [(27), H-Glu-Cys(Bzl)-OH] (H-Glu-Cys(Bn)-OH) |  | 56% | 41% | transport by hPEPT1 (in words) (hPEPT1): efficient substrates
N[C@@H](CCC(=O)O)C(=O)N[C@@H](COCc1ccccc1)C(=O)O [(28), H-Glu-Ser(Bzl)-OH] (H-Glu-Ser(Bn)-OH) |  | 82% | 58% | transport by hPEPT1 (in words) (hPEPT1): efficient substrates
N[C@@H](CC(=O)O)C(=O)N[C@@H](CSCc1ccccc1)C(=O)O [(30), H-Asp-Cys(Bzl)-OH] (H-Asp-Cys(Bn)-OH) |  | 78% | 55% | transport by hPEPT1 (in words) (hPEPT1): efficient substrates
N[C@@H](CCC(=O)O)C(=O)N[C@H](CSCc1ccccc1)C(=O)O [(34), H-Glu-D-Cys(Bzl)-OH] (H-Glu-[dC](Bn)-OH) |  | 0% | 1% | 
N[C@@H](CCC(=O)O)C(=O)N[C@H](COCc1ccccc1)C(=O)O [(35), H-Glu-D-Ser(Bzl)-OH] (H-Glu-[dS](Bn)-OH) |  | 0% | 1% | 
N[C@@H](CC(=O)O)C(=O)N[C@H](CSCc1ccccc1)C(=O)O [(36), H-Asp-D-Cys(Bzl)-OH] (H-Asp-[dC](Bn)-OH) |  | 0% | 2% | 
N[C@@H](CC(=O)O)C(=O)N[C@H](COCc1ccccc1)C(=O)O [(37), H-Asp-D-Ser(Bzl)-OH] (H-Asp-[dS](Bn)-OH) |  | 0% | 1% | 
Cl.NCC1(CC(=O)O)CCCCC1 [gabapentin, 1-aminomethyl-1-cyclohexaneacetic acid hydrochloride, reference compound] |  |  |  | bioavailability [3]: 87 ± 18%; Tmax ([3]; po): 2.8 ± 2.5 h; half-life ([3]; po): 2.4 ± 0.5 h
N-Phthaloylglycine |  |  |  | half-life [4]: ~0.167 h
